Test results as given in patent US20230172951A1, “METHODS OF USING BILE ACIDS TO TREAT VIRAL INFECTIONS” (HOFFMAN TECHNOLOGIES LLC, priority 2020, published 2023).

Assays:
[1] = tested on: Vero E6 cells; assay: Cytotoxicity / cell growth observed in Vero E6 cells during the neutralization assay; settings: for Cell growth: 1.25 mg/mL, also seen in corresponding DMSO controls (1.25%), attributed to DMSO
[2] = tested on: SARS-CoV-2 (USA-WA1/2020 strain); assay: SARS-CoV-2 neutralization assay in Vero E6 cells, cytopathic effect (CPE) read-out; type: cell-based; settings: for Inhibition of SARS-CoV-2 infection of Vero cells / Day 2 CPE / Day 4 CPE: 1.25 mg/mL; for Inhibition of SARS-CoV-2 infection of Vero cells: dosed simultaneously with viral addition to cells; for EC50 (inhibition of SARS-CoV-2 CPE): Vero E6 cells, calculated by the Quest Graph EC50 Calculator (AAT Bioquest); for Day 2 CPE / Day 4 CPE: five replicate wells; for Day 2 CPE: Day 2 post-infection; for Day 4 CPE: Day 4 post-infection
[3] = tested on: COVID-19; assay: Subject presenting with COVID-19 symptoms taking TUDCA capsules (Example 3); type: in vivo; settings: 500 mg capsule, twice per day; after several days
Method: A subject presenting with COVID-19 symptoms was instructed to administer one gelatin capsule of TUDCA (500 mg, powder in capsule), twice per day.

[4] = Solubility on dilution of DMSO stock in DMEM/F12; type: physicochemical
Method: The Vero E6 cells were plated on 96-well plates the day before the assay and were allowed to grow to ˜60% confluence. All three drugs were reconstituted with DMSO to a concentration of 100 mg/mL. That was further diluted in DMEM/F12 to 5 mg/mL. […] A 1:2 serial dilution series was performed to examine final concentrations of 1.25, 0.625, 0.31, 0.156, 0.078, 0.039, and 0.02 mg/mL. DMSO controls were used to account for DMSO concentrations at 1.25, 0.625, 0.31, 0.156, 0.078, 0.039, and 0.02%. Dilutions were pre-incubated with virus for 60 minutes prior to addition to cells. This was to allow drug to interact with virus prior to virus infection. Additionally, drug and virus were added to Vero cells simultaneously. 45 minutes after virus addition, DMEM/F12+FBS was added to feed the cells. The assay was executed in five replicates for each condition. Test wells received approximately 100 TCID50/well of SARS-CoV-2. Growth of the Vero E6 cells was observed and monitored for cytopathic effects (CPE) associated with successful virus replication. All wells were examined on Day 2 and Day 4 post-infection.

[5] = tested on: SARS-CoV-2 / COVID-19; type: in vivo; settings: 500 mg capsule, twice per day
[6] = pre-incubation with virus for 60 minutes
[7] = simultaneous addition of drug and virus

| SMILES | Cell growth [1] | Inhibition of SARS-CoV-2 infection of Vero cells [2] | EC50 (inhibition of SARS-CoV-2 CPE) [2] [µg/mL] | Day 2 CPE [2, 6] | Day 2 CPE [2, 7] | Day 4 CPE [2, 7] | Health outcome of subject with COVID-19 symptoms [3] | Cytotoxicity in wells ([1]; 1.25 and 0.625 mg/mL final concentrations) | Solubility in DMEM/F12 ([4]; 100 mg/mL DMSO stock diluted in DMEM/F12 to 5 mg/mL) | Solubility in DMEM/F12 ([4]; next 1:2 dilution after 5 mg/mL) | Health outcome of member who tested positive for SARS-CoV-2 with COVID-19 symptoms ([5]; oral, one member) | COVID-19 symptoms in exposed members (prophylaxis) ([5]; twelve members, repeated exposure to COVID-19 patients over at least 3 months) |
| --- | --- | --- | --- | --- | --- | --- | --- | --- | --- | --- | --- | --- |
| C[C@H](CCC(=O)NCCS(=O)(=O)[O-])[C@H]1CC[C@H]2[C@@H]3[C@@H](O)C[C@@H]4C[C@H](O)CC[C@]4(C)[C@H]3CC[C@]12C.[Na+] [Sodium TUDCA] | Slowed cell growth | inhibit SARS-CoV-2 infection of Vero cells | 980 | no CPE | no CPE | no CPE | – | – | – | – | – | – |
| CC(CCC(=O)NCCS(=O)(=O)O)C1CCC2C3C(O)CC4CC(O)CCC4(C)C3CCC12C (stereo not drawn) [TUDCA acid, tauroursodeoxycholic acid] | Slowed cell growth | inhibit SARS-CoV-2 infection of Vero cells | 980 | no CPE | no CPE | no CPE | – | – | – | – | – | – |
| CC(CCC(=O)NCCS(=O)(=O)O)C1CCC2C3C(O)CC4CC(O)CCC4(C)C3CCC12C (stereo not drawn) [TUDCA, tauroursodeoxycholic acid] | – | – | – | – | – | – | health returned to normal | Cytotoxicity was seen | came out of solution | soluble | health returned to normal | None of the other twelve members have presented with COVID-19 symptoms |
